Active and inactive are the calls of the source. The calls are words filed in the database; no cut-off is given here.
Assays:
HCT-116 [1] = assay: Induction of apoptosis in human HCT-116 cells assessed as downregulation of DCTPP1 gene expression at 10 to 500 nM incubated for 6 to 48 hrs by RNA analysis; format: functional, cell-based; conditions: dose 10-500 nM, time 6-48 hrs
HCT-116 [2] = assay: Induction of apoptosis in human HCT-116 cells assessed as downregulation of NT5C2 gene expression at 10 to 500 nM incubated for 6 to 48 hrs by RNA analysis; format: functional, cell-based; conditions: dose 10-500 nM, time 6-48 hrs
HCT-116 [3] = assay: Activation of innate immune response in human HCT-116 cells assessed as upregulation of CASP1 gene expression at 10 to 500 nM incubated for 6 to 48 hrs by RNA analysis; format: functional, cell-based; conditions: dose 10-500 nM, time 6-48 hrs
HCT-116 [4] = assay: Induction of apoptosis in human HCT-116 cells assessed as downregulation of RANBP2 gene expression at 10 to 500 nM incubated for 6 to 48 hrs by RNA analysis; format: functional, cell-based; conditions: dose 10-500 nM, time 6-48 hrs
HCT-116 [5] = assay: Activation of innate immune response in human HCT-116 cells assessed as upregulation of IL-12RB2 gene expression at 10 to 500 nM incubated for 6 to 48 hrs by RNA analysis; format: functional, cell-based; conditions: dose 10-500 nM, time 6-48 hrs
HCT-116 [6] = assay: Induction of apoptosis in human HCT-116 cells assessed as downregulation of HPRT1 gene expression at 10 to 500 nM incubated for 6 to 48 hrs by RNA analysis; format: functional, cell-based; conditions: dose 10-500 nM, time 6-48 hrs
HCT-116 [7] = assay: Induction of apoptosis in human HCT-116 cells assessed as downregulation of PRKACB gene expression at 10 to 500 nM incubated for 6 to 48 hrs by RNA analysis; format: functional, cell-based; conditions: dose 10-500 nM, time 6-48 hrs
HCT-116 [8] = assay: Induction of apoptosis in human HCT-116 cells assessed as downregulation of NUDT1 gene expression at 10 to 500 nM incubated for 6 to 48 hrs by RNA analysis; format: functional, cell-based; conditions: dose 10-500 nM, time 6-48 hrs
HCT-116 [9] = assay: Induction of apoptosis in human HCT-116 cells assessed as upregulation of ADCY6 mRNA expression at 10 to 500 nM incubated for 6 to 48 hrs by RNA analysis; format: functional, cell-based; conditions: dose 10-500 nM, time 6-48 hrs
HCT-116 [10] = assay: Induction of apoptosis in human HCT-116 cells assessed as downregulation of NUP155 gene expression at 10 to 500 nM incubated for 6 to 48 hrs by RNA analysis; format: functional, cell-based; conditions: dose 10-500 nM, time 6-48 hrs
HCT-116 [11] = assay: Induction of apoptosis in human HCT-116 cells assessed as downregulation of NUP107 gene expression at 10 to 500 nM incubated for 6 to 48 hrs by RNA analysis; format: functional, cell-based; conditions: dose 10-500 nM, time 6-48 hrs
HCT-116 [12] = assay: Induction of apoptosis in human HCT-116 cells assessed as upregulation of BIK mRNA expression at 10 to 500 nM incubated for 6 to 48 hrs by RNA analysis; format: functional, cell-based; conditions: dose 10-500 nM, time 6-48 hrs
HeLa = assay: Growth inhibition of human HeLa cells incubated for 48 hrs by MTT reagent based ELISA reader analysis; format: functional, cell-based
HCT-116 [13] = assay: Induction of apoptosis in human HCT-116 cells assessed as downregulation of TPR gene expression at 10 to 500 nM incubated for 6 to 48 hrs by RNA analysis; format: functional, cell-based; conditions: dose 10-500 nM, time 6-48 hrs
HCT-116 [14] = assay: Induction of apoptosis in human HCT-116 cells assessed as downregulation of NUP85 gene expression at 10 to 500 nM incubated for 6 to 48 hrs by RNA analysis; format: functional, cell-based; conditions: dose 10-500 nM, time 6-48 hrs
HCT-116 [15] = assay: Induction of apoptosis in human HCT-116 cells assessed as upregulation of CDKN1A mRNA expression at 10 to 500 nM incubated for 6 to 48 hrs by RNA analysis; format: functional, cell-based; conditions: dose 10-500 nM, time 6-48 hrs
HCT-116 [16] = assay: Induction of apoptosis in human HCT-116 cells assessed as downregulation of PRKAR2B gene expression at 10 to 500 nM incubated for 6 to 48 hrs by RNA analysis; format: functional, cell-based; conditions: dose 10-500 nM, time 6-48 hrs
HCT-116 [17] = assay: Activation of innate immune response in human HCT-116 cells assessed as upregulation of IL-1A gene expression at 10 to 500 nM incubated for 6 to 48 hrs by RNA analysis; format: functional, cell-based; conditions: dose 10-500 nM, time 6-48 hrs
HCT-116 [18] = assay: Induction of apoptosis in human HCT-116 cells assessed as downregulation of PUDP gene expression at 10 to 500 nM incubated for 6 to 48 hrs by RNA analysis; format: functional, cell-based; conditions: dose 10-500 nM, time 6-48 hrs
MCF7 = assay: Growth inhibition of human MCF7 cells incubated for 48 hrs by MTT reagent based ELISA reader analysis; format: functional, cell-based; conditions: MCF7, 48 h
A549 = assay: Growth inhibition of human A549 cells incubated for 48 hrs by MTT reagent based ELISA reader analysis; format: functional, cell-based; conditions: A549, 48 h
HCT-116 [19] = assay: Induction of apoptosis in human HCT-116 cells assessed as downregulation of CTPS2 gene expression at 10 to 500 nM incubated for 6 to 48 hrs by RNA analysis; format: functional, cell-based; conditions: dose 10-500 nM, time 6-48 hrs
HCT-116 [20] = assay: Growth inhibition of human HCT-116 cells incubated for 48 hrs by MTT reagent based ELISA reader analysis; format: functional, cell-based; conditions: HCT-116, 48 h
HCT-116 [21] = assay: Induction of apoptosis in human HCT-116 cells assessed as downregulation of ACACA gene expression at 10 to 500 nM incubated for 6 to 48 hrs by RNA analysis; format: functional, cell-based; conditions: dose 10-500 nM, time 6-48 hrs
[22] = biological target: T1, DNA topoisomerase 1 (Homo sapiens) (UniProt P11387); assay: Inhibition of topoisomerase 1 (unknown origin) assessed as relaxation of supercoiled plasmid pBR322 DNA at 25 to 100 uM incubated for 30 mins by ethidium bromide staining based agarose gel electrophoresis; conditions: dose 25-100 µM
T1 sequence (whole entry): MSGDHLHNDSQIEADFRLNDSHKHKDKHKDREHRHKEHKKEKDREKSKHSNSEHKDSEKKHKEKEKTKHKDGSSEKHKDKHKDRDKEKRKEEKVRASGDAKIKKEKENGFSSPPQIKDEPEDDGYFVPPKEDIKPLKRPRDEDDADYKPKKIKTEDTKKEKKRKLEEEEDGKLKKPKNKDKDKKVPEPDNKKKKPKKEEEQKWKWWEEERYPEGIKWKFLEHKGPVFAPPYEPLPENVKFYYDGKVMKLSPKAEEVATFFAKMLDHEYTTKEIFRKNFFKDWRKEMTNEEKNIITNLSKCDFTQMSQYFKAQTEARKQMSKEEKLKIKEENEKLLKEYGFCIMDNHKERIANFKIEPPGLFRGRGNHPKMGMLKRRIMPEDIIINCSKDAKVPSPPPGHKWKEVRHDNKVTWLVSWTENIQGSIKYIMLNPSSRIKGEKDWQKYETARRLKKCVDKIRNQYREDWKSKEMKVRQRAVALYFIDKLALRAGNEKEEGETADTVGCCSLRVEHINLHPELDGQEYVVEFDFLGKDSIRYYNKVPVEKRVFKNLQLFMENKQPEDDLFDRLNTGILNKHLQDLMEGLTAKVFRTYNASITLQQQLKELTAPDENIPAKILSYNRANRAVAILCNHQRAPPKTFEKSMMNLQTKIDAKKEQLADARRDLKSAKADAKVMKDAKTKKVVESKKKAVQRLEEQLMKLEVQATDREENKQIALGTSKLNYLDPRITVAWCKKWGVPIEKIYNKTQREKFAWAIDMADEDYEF

PDX14244 = assay: Antitumor activity against human PDX14244 cells xenografted in SCID mouse model assessed as reduction in tumor volume at 8 mg/kg,po administrated once per week for 3 weeks; format: functional, organism-based

Compound	Activity (HCT-116 [1])	Activity (HCT-116 [2])	Activity (HCT-116 [3])	Activity (HCT-116 [4])	Activity (HCT-116 [5])	Activity (HCT-116 [8])	Activity (HCT-116 [10])	Activity (HCT-116 [11])	Activity (HCT-116 [12])	IC50 (HeLa) [nM]	Activity (HCT-116 [13])	Activity (HCT-116 [14])	Activity (HCT-116 [15])	Activity (HCT-116 [16])	Activity (HCT-116 [18])	IC50 (MCF7) [nM]	IC50 (A549) [nM]	Activity (HCT-116 [19])	IC50 (HCT-116 [20]) [nM]	Activity (HCT-116 [21])	other results
CC[C@@]1(O)C(=O)OCc2c1cc1n(c2=O)Cc2cc3cc4c(cc3nc2-1)OCO4	Active	Active	Active	Active	Active	Active	Active	Active	Active	32.4	Active	Active	Active	Active	Active	32.2	50.7	Active	23.5	Active	Activity (HCT-116 [6]): Active; Activity (HCT-116 [7]): Active; Activity (HCT-116 [9]): Active; Activity (HCT-116 [17]): Active
CC[C@@]1(O)C(=O)OCc2c1cc1n(c2=O)Cc2c-1nc1cc3c(cc1c2-c1cc(OC)cc(OC)c1)OCO3	Active	Active		Active	Active	Active	Active	Active	Active	< 6.4	Active	Active	Active	Active	Active	< 6.4	28.5	Active	99.4	Active	Topoisomerase 1 inhibition [22]: Active; Activity (PDX14244): Active
CCc1ccc(-c2c3c(nc4cc5c(cc24)OCO5)-c2cc4c(c(=O)n2C3)COC(=O)[C@]4(O)CC)cc1	Active	Active	Active	Active	Active	Active	Active	Active	Active	37.5	Active	Active	Active	Active	Active	47.4	57.2	Active	55.6	Active	Topoisomerase 1 inhibition [22]: Active; Activity (HCT-116 [6]): Active; Activity (HCT-116 [7]): Active; Activity (HCT-116 [9]): Active; Activity (PDX14244): Active; Activity (HCT-116 [17]): Active
CC[C@@]1(O)C(=O)OCc2c1cc1n(c2=O)Cc2c-1nc1cc3c(cc1c2-c1ccc(OC)cc1)OCO3	Active	Active	Active	Active	Active	Active	Active	Active	Active	48.3	Active	Active	Active	Active	Active	45.8	43.3	Active	17.7	Active	Topoisomerase 1 inhibition [22]: Active; Activity (HCT-116 [6]): Active; Activity (HCT-116 [7]): Active; Activity (HCT-116 [9]): Active; Activity (PDX14244): Active; Activity (HCT-116 [17]): Active

Source: ChEMBL document CHEMBL5376003, “Structure-Activity Relationship of FL118 Platform Position 7 Versus Position 9-Derived Compounds and Their Mechanism of Action and Antitumor Activity” (J Med Chem, 2023)
